Assays:
[1] = system: Alopecurus myosuroides (ALOMY); assay: Example B post-emergence herbicidal activity, glasshouse pot test; assay type: in vivo; conditions: 312 h, rate 250 g/ha, evaluated after 13 days, read-out: ALOMY post-emergence activity (100=total damage to plant; 0=no damage to plant)
Description: (§1) Seeds of a variety of test species are sown in standard soil in pots. After cultivation for one day (pre-emergence) or after 8 days cultivation (post-emergence) under controlled conditions in a glasshouse (at 24/16° C., day/night; 14 hours light; 65% humidity), the plants are sprayed with an aqueous spray solution derived from the formulation of the technical active ingredient in acetone/water (50:50) solution containing 0.5% Tween 20 (polyoxyethelyene sorbitan monolaurate, CAS RN 9005-64-5). The test plants are then grown in a glasshouse under controlled conditions in a glasshouse (at 24/16° C., day/night; 14 hours light; 65% humidity) and watered twice daily. After 13 days for pre and post-emergence, the test is evaluated (100=total damage to plant; 0=no damage to plant). Test Plants: Setaria faberi (SETFA), Alopecurus myosuroides (ALOMY), Echinochloa crus-galli (ECHCG), Avena fatua (AVEFA)

Avena fatua (AVEFA) = assay: as above; assay type: in vivo; conditions: 312 h, rate 250 g/ha, evaluated after 13 days, read-out: AVEFA post-emergence activity (100=total damage to plant; 0=no damage to plant)
Description: as §1

[2] = system: Echinochloa crus-galli (ECHCG); assay: as above; assay type: in vivo; conditions: 312 h, rate 250 g/ha, evaluated after 13 days, read-out: ECHCG post-emergence activity (100=total damage to plant; 0=no damage to plant)
Description: as §1

Setaria faberi (SETFA) = assay: as above; assay type: in vivo; conditions: 312 h, rate 250 g/ha, evaluated after 13 days, read-out: SETFA post-emergence activity (100=total damage to plant; 0=no damage to plant)
Description: as §1

melting point	SMILES	further results
165 to 166 °C	CCON1CCC2(CC1)NC(=O)C(c1ccc(Cl)cc1Cl)=C2OC(=O)C(C)(C)C [Compound P26]	–
239 to 242 °C	CON1CCC2(CC1)NC(=O)C(c1ccc(Cl)c(Cl)c1)C2=O (centres unmarked) [Compound T10]	–
196 to 197 °C	CON1CCC2(CC1)NC(=O)C(c1cc(C)ccc1C)=C2OC(=O)OCC(C)(C)C [Compound P7]	–
56 to 59 °C	CON1CCC2(CC1)NC(=O)C(c1ccc(Cl)c(Cl)c1)=C2OC(=O)N(C)CCC#N [Compound P41]	–
101 to 104 °C	CON1CCC2(CC1)NC(=O)C(c1cc(-c3ccc(F)cc3)c(F)cc1C)=C2OC(=O)C(C)(C)C [Compound P72]	–
244 to 245 °C	CCON1CCC2(CC1)NC(=O)C(c1ccc(Cl)cc1Cl)C2=O (centres unmarked) [Compound T6]	–
206 to 209 °C	CCOC(=O)OC1=C(c2cc(Br)c(C)cc2C)C(=O)NC12CCN(OC)CC2 [Compound P51]	–
158 to 159 °C	CON1CCC2(CC1)NC(=O)C(c1cc(C)ccc1C)=C2OC(=O)C(C)(C)C [Compound P9]	–
194 to 196 °C	CON1CCC2(CC1)NC(=O)C(c1cc(Br)ccc1C)C2=O (centres unmarked) [Compound T8]	–
201 to 203 °C	CCOC(=O)OC1=C(c2ccc(Br)cc2C)C(=O)NC12CCN(OC)CC2 [Compound P68]	pest or weed control at 250 g/ha [1]: 70%; pest or weed control at 250 g/ha (Avena fatua (AVEFA)): 60%; pest or weed control at 250 g/ha [2]: 90%; pest or weed control at 250 g/ha (Setaria faberi (SETFA)): 90%
151 to 153 °C	C#CCOC(=O)OC1=C(c2cc(C)ccc2C)C(=O)NC12CCN(OC)CC2 [Compound P8]	–
167 to 168 °C	CCOC(=O)OC1=C(c2cc(C)ccc2C)C(=O)NC12CCN(OCC)CC2 [Compound P21]	–
162 to 164 °C	C=COC(=O)OC1=C(c2cc(C)ccc2C)C(=O)NC12CCN(OC)CC2 [Compound P6]	–
183 to 185 °C	COCOC1=C(c2cc(C)ccc2C)C(=O)NC12CCN(OC)CC2 [Compound P12]	–
168 to 169 °C	CON1CCC2(CC1)NC(=O)C(c1cc(-c3ccc(Cl)cc3)c(C)cc1C)C2=O (centres unmarked) [Compound T15]	pest or weed control at 250 g/ha [1]: 60%; pest or weed control at 250 g/ha (Avena fatua (AVEFA)): 60%; pest or weed control at 250 g/ha [2]: 90%; pest or weed control at 250 g/ha (Setaria faberi (SETFA)): 90%
> 200 °C	CON1CCC2(CC1)NC(=O)C(c1c(C)cc(C3CC3)cc1C)=C2OC(=O)C(C)(C)C [Compound P57]	–
168 to 170 °C	CON1CCC2(CC1)NC(=O)C(c1cc(C)ccc1C)=C2OS(=O)(=O)C(C)C [Compound P13]	–
156 to 157 °C	C=CCOC(=O)OC1=C(c2cc(OC)ccc2OC)C(=O)NC12CCN(OC)CC2 [Compound P47]	–
187 to 189 °C	COc1ccc(OC)c(C2=C(OC(=O)N(C)CCC#N)C3(CCN(OC)CC3)NC2=O)c1 [Compound P42]	–
> 200 °C	CON1CCC2(CC1)NC(=O)C(c1c(C)cc(C)c(Cl)c1C)C2=O (centres unmarked) [Compound T20]	–

melting point	SMILES	further results
129 to 131 °C	CCN(CC)C(=O)OC1=C(c2cc(C)ccc2C)C(=O)NC12CCN(OC)CC2 [Compound P10]	–
104 to 106 °C	CON1CCC2(CC1)NC(=O)C(c1cc(C)ccc1C)=C2OCC#N [Compound P35]	–
229 to 230 °C	CON1CCC2(CC1)NC(=O)C(c1cc(-c3ccc(Cl)cc3)c(C)cc1C)=C2OC(=O)C(C)(C)C [Compound P54]	–
> 250 °C	CON1CCC2(CC1)NC(=O)C(c1c(C)cc(-c3ccc(Cl)cc3)cc1C)=C2OC(=O)C(C)(C)C [Compound P71]	pest or weed control at 250 g/ha [1]: 0%; pest or weed control at 250 g/ha (Avena fatua (AVEFA)): 20%; pest or weed control at 250 g/ha [2]: 30%; pest or weed control at 250 g/ha (Setaria faberi (SETFA)): 60%
–	CON1CCC2(CC1)NC(=O)C(c1cc(C3CC3)c(C)cc1C)C2=O (centres unmarked) [Compound T16, 3-(5-cyclopropyl-2,4-dimethyl-phenyl)-4-hydroxy-8-methoxy-1,8-diaza-spiro[4.5]dec-3-en-2-one]	pest or weed control at 250 g/ha [1]: 60%; pest or weed control at 250 g/ha (Avena fatua (AVEFA)): 30%; pest or weed control at 250 g/ha [2]: 60%; pest or weed control at 250 g/ha (Setaria faberi (SETFA)): 80%
220 to 224 °C	CON1CCC2(CC1)NC(=O)C(c1c(C)cc(C)cc1C)=C2OC(=O)N(C)CCC#N [Compound P40]	–
194 to 196 °C	COc1ccc(OC)c(C2C(=O)NC3(CCN(OC)CC3)C2=O)c1 (centres unmarked) [Compound T11]	–
229 to 230 °C	CON1CCC2(CC1)NC(=O)C(c1cc(Br)c(F)cc1C)=C2O [Compound T19, 3-(5-bromo-4-fluoro-2-methyl-phenyl)-4-hydroxy-8-methoxy-1,8-diaza-spiro[4.5]dec-3-en-2-one]	–
210 to 213 °C	C=CCOC(=O)OC1=C(c2ccc(Cl)c(Cl)c2)C(=O)NC12CCN(OC)CC2 [Compound P46]	–
133 to 136 °C	CCCOC(=O)OC1=C(c2cc(C)ccc2C)C(=O)NC12CCN(OC)CC2 [Compound P2]	–
197 to 200 °C	CON1CCC2(CC1)NC(=O)C(c1cc(Br)ccc1C)=C2OC(=O)N(C)CCC#N [Compound P28]	–
195 to 197 °C	CON1CCC2(CC1)NC(=O)C(c1ccc(C3CC3)cc1Cl)=C2OC(=O)C(C)(C)C [Compound P59]	–
193 to 195 °C	CCOC(=O)OC1=C(c2ccc(C3CC3)cc2C)C(=O)NC12CCN(OC)CC2 [Compound P60]	–
157 to 158 °C	C=CCOC(=O)OC1=C(c2cc(Br)ccc2C)C(=O)NC12CCN(OC)CC2 [Compound P45]	–
216 to 217 °C	CON1CCC2(CC1)NC(=O)C(c1cc(Br)c(F)cc1C)=C2OC(=O)C(C)(C)C [Compound P63]	–
183 to 184 °C	CCOC(=O)OC1=C(c2ccc(Cl)cc2Cl)C(=O)NC12CCN(OCC)CC2 [Compound P23]	–
202 to 204 °C	CCC(=O)OC1=C(c2cc(C)ccc2C)C(=O)NC12CCN(OC)CC2 [Compound P20]	–
173 to 174 °C	C=CCOC1=C(c2cc(C)ccc2C)C(=O)NC12CCN(OC)CC2 [Compound P37]	–
229 to 232 °C	CCOC(=O)OC1=C(c2c(Cl)cccc2Cl)C(=O)NC12CCN(OC)CC2 [Compound P17]	–
203 to 205 °C	COC1=C(c2cc(C)ccc2C)C(=O)NC12CCN(OC)CC2 [Compound P11]	–

melting point	SMILES	further results
225 to 226 °C	CON1CCC2(CC1)NC(=O)C(c1cc(Br)c(C)cc1C)=C2OC(=O)C(C)(C)C [Compound P52]	–
191 to 194 °C	CON1CCC2(CC1)NC(=O)C(c1ccc(C3CC3)cc1C)C2=O (centres unmarked) [Compound T18]	–
166 to 167 °C	CCON1CCC2(CC1)NC(=O)C(c1cc(C)ccc1C)C2=O (centres unmarked) [Compound T7]	–
222 to 224 °C	CCOC(=O)OC1=C(c2ccc(Cl)c(Cl)c2)C(=O)NC12CCN(OC)CC2 [Compound P30]	–
> 250 °C	CON1CCC2(CC1)NC(=O)C(c1c(C)cc(C3CC3)cc1C)C2=O (centres unmarked) [Compound T13]	–
192 to 193 °C	CCOC(=O)OC1=C(c2cc(OC)ccc2OC)C(=O)NC12CCN(OC)CC2 [Compound P31]	–
207 to 209 °C	CON1CCC2(CC1)NC(=O)C(c1cc(C)ccc1C)=C2OC(=O)OC(C)C [Compound P3]	–
205 to 209 °C	CCOC(=O)OC1=C(c2cc(Br)ccc2C)C(=O)NC12CCN(OC)CC2 [Compound P27]	–
215 to 216 °C	CCOC(=O)OC1=C(c2c(C)cc(C3CC3)cc2C)C(=O)NC12CCN(OC)CC2 [Compound P50]	–
169 to 170 °C	CCON1CCC2(CC1)NC(=O)C(c1cc(C)ccc1C)=C2OC(=O)C(C)(C)C [Compound P24]	–
184 to 185 °C	C#CCOC1=C(c2cc(C)ccc2C)C(=O)NC12CCN(OC)CC2 [Compound P38]	–
244 to 245 °C	CON1CCC2(CC1)NC(=O)C(c1ccc(C3CC3)cc1C)=C2OC(=O)C(C)(C)C [Compound P61]	–
239 to 242 °C	CON1CCC2(CC1)NC(=O)C(c1c(Cl)cccc1Cl)=C2OC(=O)N(C)CCC#N [Compound P33]	–
161 to 164 °C	COCCOC1=C(c2cc(C)ccc2C)C(=O)NC12CCN(OC)CC2 [Compound P73]	–
140 to 142 °C	C=CCOC(=O)OC1=C(c2cc(C)ccc2C)C(=O)NC12CCN(OC)CC2 [Compound P4]	–
170 to 173 °C	CCOC(=O)OC1=C(c2cc(C)ccc2C)C(=O)NC12CCN(OC)CC2 [Compound P1]	–
190 to 192 °C	CCOC(=O)OC1=C(c2ccc(C3CC3)cc2Cl)C(=O)NC12CCN(OC)CC2 [Compound P58]	–
206 to 207 °C	CON1CCC2(CC1)NC(=O)C(c1ccc(C3CC3)cc1Cl)C2=O (centres unmarked) [Compound T17]	–
233 to 236 °C	CON1CCC2(CC1)NC(=O)C(c1cc(C)ccc1C)=C2OC(C)=O [Compound P19]	–

From US8722578B2, “Spiroheterocyclic pyrrolidinedione herbicidal compositions” (Syngenta Participations AG, priority 2008, dated 2014)
